Drawing on US6759060B2, “Synthetic particulate vectors and preparation process” (Biovector Therapeutics, S.A., priority 1993, dated 2004), this text covers Filtration yield % and pKa for two compounds.

Series [1] can be described thus: Filterability of ddCTP/PSC (filtration yield). The class given is physicochemical. The note with it: ddCTP with or without cationic PSC.
For series [2] the following is noted: cited from earlier work.

Where “and” joins values, the source holds several entries; their conditions need not be identical. Identical values can stand only once.

The compound “dideoxy cytidine triphosphate [Free ddCTP]” registered a Filtration yield % in series [1] of 99.4 ± 0.8%.
For the compound `COc1cccc2c1C(=O)c1c(O)c3c(c(O)c1C2=O)C[C@@](O)(C(=O)CO)C[C@@H]3O[C@H]1C[C@H](N)[C@H](O)[C@H](C)O1` [Doxorubicin], in series [2], the pKa is 8.5 and 8.2-8.5.
